Measured values published in PubChem BioAssay AID248 (DTP/NCI, 2004).
“And” between values parts separate entries of the source, which are not always exact repeats. Equal values may be shown once. Inconclusive results and toxic doses are left out. Rule as the data show it: active = T/C of 150% or more; inactive = T/C below 125%.

Tested on: L1210 leukemia ip in BDF1 mice, survival T/C
Test: NCI In Vivo Anticancer Drug Screen. Data for tumor model L1210 Leukemia (intraperitoneal) in B6D2F1 (BDF1) mice
Conditions: endpoint: mean survival time, higher = longer survival
Summary of the method: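 Transplanted-tumor mice were given test agent; controls received vehicle only. Survival readings from the two groups were divided (treated over control).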

[1] = dose: 50.0 mg/kg/injection, schedule: Q01DX009 (ip), vehicle: Klucel (hydroxypropylcellulose) (HPC)
[2] = dose: 100.0 mg/kg/injection, schedule: Q01DX009 (ip), vehicle: Klucel (hydroxypropylcellulose) (HPC)
[3] = dose: 100.0 mg/kg/injection, schedule: Q04DX003 (ip), vehicle: Klucel (hydroxypropylcellulose) (HPC)
[4] = dose: 200.0 mg/kg/injection, schedule: Q01DX009 (ip), vehicle: Klucel (hydroxypropylcellulose) (HPC)
[5] = dose: 200.0 mg/kg/injection, schedule: Q04DX003 (ip), vehicle: Klucel (hydroxypropylcellulose) (HPC)
[6] = dose: 400.0 mg/kg/injection, schedule: Q01DX009 (ip), vehicle: Klucel (hydroxypropylcellulose) (HPC)
[7] = dose: 400.0 mg/kg/injection, schedule: Q04DX003 (ip), vehicle: Klucel (hydroxypropylcellulose) (HPC)
[8] = dose: 100.0 mg/kg/injection, schedule: Q04DX003 (ip), vehicle: saline with Tween-80
[9] = dose: 200.0 mg/kg/injection, schedule: Q04DX003 (ip), vehicle: saline with Tween-80
[10] = dose: 400.0 mg/kg/injection, schedule: Q04DX003 (ip), vehicle: saline with Tween-80
[11] = dose: 100.0 mg/kg/injection, schedule: Q04DX003 (ip), vehicle: saline
[12] = dose: 200.0 mg/kg/injection, schedule: Q04DX003 (ip), vehicle: saline
[13] = dose: 400.0 mg/kg/injection, schedule: Q04DX003 (ip), vehicle: saline
[14] = dose: 100.0 mg/kg/injection, schedule: Q01DX009 (ip), vehicle: saline with Tween-80
[15] = dose: 200.0 mg/kg/injection, schedule: Q01DX009 (ip), vehicle: saline with Tween-80
[16] = dose: 100.0 mg/kg/injection, schedule: Q04DX002 (ip), vehicle: Klucel (hydroxypropylcellulose) (HPC)
[17] = dose: 200.0 mg/kg/injection, schedule: Q04DX002 (ip), vehicle: Klucel (hydroxypropylcellulose) (HPC)
[18] = dose: 400.0 mg/kg/injection, schedule: Q04DX002 (ip), vehicle: Klucel (hydroxypropylcellulose) (HPC)
[19] = dose: 100.0 mg/kg/injection, schedule: Q01DX001 (ip), vehicle: Klucel (hydroxypropylcellulose) (HPC)
[20] = dose: 200.0 mg/kg/injection, schedule: Q01DX001 (ip), vehicle: Klucel (hydroxypropylcellulose) (HPC)
[21] = dose: 400.0 mg/kg/injection, schedule: Q01DX001 (ip), vehicle: Klucel (hydroxypropylcellulose) (HPC)
[22] = dose: 100.0 mg/kg/injection, schedule: Q01DX001 (ip), vehicle: saline
[23] = dose: 200.0 mg/kg/injection, schedule: Q01DX001 (ip), vehicle: saline
[24] = dose: 400.0 mg/kg/injection, schedule: Q01DX001 (ip), vehicle: saline

Measured: T/C

O=C(Cl)C1CC2c3ccccc3C1([N+](=O)[O-])c1ccccc12 (stereo not given)
inactive: [1] 109 % of control | [2] 102 % of control | [3] 104 % of control | [4] 112 % of control and 91 % of control | [5] 104 % of control | [6] 101 % of control | [7] 98 % of control

Nc1nc(N)c(-c2ccc(Cl)cc2)c(COc2cccc([N+](=O)[O-])c2)n1
inactive: dose: 75.0 mg/kg/injection, schedule: Q01DX001 (ip), vehicle: carboxymethylcellulose (CMC) 89 % of control | dose: 150.0 mg/kg/injection, schedule: Q01DX001 (ip), vehicle: carboxymethylcellulose (CMC) 92 % of control | dose: 300.0 mg/kg/injection, schedule: Q01DX001 (ip), vehicle: carboxymethylcellulose (CMC) 93 % of control

C/C(=C1\C(=O)Nc2ccccc21)c1ccco1
inactive: [8] 101 % of control | [9] 104 % of control | [10] 104 % of control

CC(=O)Oc1ccc2c3c(c(=O)oc2c1)C(C)(C)c1c(c(=O)oc2cc(OC(C)=O)ccc12)C3(C)C
inactive: dose: 100.0 mg/kg/injection, schedule: Q01DX009 (ip), vehicle: saline sonified 97 % of control | dose: 100.0 mg/kg/injection, schedule: Q04DX003 (ip), vehicle: saline sonified 102 % of control | dose: 200.0 mg/kg/injection, schedule: Q01DX009 (ip), vehicle: saline sonified 98 % of control | dose: 200.0 mg/kg/injection, schedule: Q04DX003 (ip), vehicle: saline sonified 97 % of control | dose: 400.0 mg/kg/injection, schedule: Q01DX009 (ip), vehicle: saline sonified 98 % of control | dose: 400.0 mg/kg/injection, schedule: Q04DX003 (ip), vehicle: saline sonified 105 % of control

c1ccc(NC2=NCCN2)nc1
inactive: dose: 75.0 mg/kg/injection, schedule: Q01DX001 (ip), vehicle: saline 93 % of control

CN(C)c1ccc(/C=N/Nc2nnc(N/N=C/c3ccc(N(C)C)cc3)c3ccccc23)cc1
inactive: dose: 50.0 mg/kg/injection, schedule: Q01DX001 (ip), vehicle: carboxymethylcellulose (CMC) 98 % of control and 91 % of control | dose: 100.0 mg/kg/injection, schedule: Q01DX001 (ip), vehicle: carboxymethylcellulose (CMC) 86 % of control | dose: 200.0 mg/kg/injection, schedule: Q01DX001 (ip), vehicle: carboxymethylcellulose (CMC) 93 % of control and 91 % of control | dose: 400.0 mg/kg/injection, schedule: Q01DX001 (ip), vehicle: carboxymethylcellulose (CMC) 100 % of control and 104 % of control

O=c1oc2cccc(O)c2c(O)c1Cc1ccccc1
inactive: [11] 97 % of control | [12] 94 % of control | [13] 94 % of control

CCC(C)NC(=O)NC (stereo not given)
inactive: [2] 100 % of control | [4] 97 % of control | [6] 101 % of control

CC(C)(C)C(=O)OCn1cnc(=N)c2[nH]cnc21
inactive: [3] 100 % of control | [5] 108 % of control

CCCC(CCCC(=O)O)C(=O)c1ccccc1 (stereo not given)
inactive: [14] 101 % of control | [15] 104 % of control | dose: 400.0 mg/kg/injection, schedule: Q01DX009 (ip), vehicle: saline with Tween-80 100 % of control

CCOC(=O)C(Nc1cccc2ccccc12)C(=O)OCC
inactive: [16] 105 % of control | [17] 103 % of control | [18] 100 % of control

CCC(C)C(NC(=O)C1CSC(C)(C)N1C=O)C(=O)OC1CCCCC1 (stereo not given)
inactive: [8] 98 % of control | [9] 97 % of control | [10] 101 % of control

NC(=O)CNc1ccccc1C(=O)O
inactive: [19] 93 % of control | [20] 96 % of control | [21] 93 % of control

COC(Cl)C(Cl)(Cl)Cl (stereo not given)
inactive: dose: 50.0 mg/kg/injection, schedule: Q01DX009 (ip), vehicle: saline 93 % of control | dose: 100.0 mg/kg/injection, schedule: Q01DX001 (ip), vehicle: acetone 103 % of control | dose: 100.0 mg/kg/injection, schedule: Q01DX009 (ip), vehicle: saline 88 % of control | [11] 103 % of control | dose: 200.0 mg/kg/injection, schedule: Q01DX001 (ip), vehicle: acetone 90 % of control | dose: 200.0 mg/kg/injection, schedule: Q01DX009 (ip), vehicle: saline 91 % of control | [12] 100 % of control | dose: 400.0 mg/kg/injection, schedule: Q01DX001 (ip), vehicle: acetone 92 % of control

O=C(Nc1ccc(S(=O)(=O)F)c(Cl)c1)Oc1ccccc1
inactive: [22] 96 % of control | [23] 96 % of control | [24] 96 % of control

O=C(N/N=C/c1ccccc1O)c1ccc(Cl)cc1
inactive: dose: 50.0 mg/kg/injection, schedule: Q01DX009 (ip), vehicle: saline with Tween-80 93 % of control | [14] 93 % of control | [15] 93 % of control

CCOc1ccc2nc(C)cc(C)c2c1
inactive: [16] 98 % of control | [17] 112 % of control

CCCC[N+](CCCC)=c1cc(-c2ccc(Cl)cc2)ss1
inactive: dose: 100.0 mg/kg/injection, schedule: Q04DX003 (ip), vehicle: water 95 % of control | dose: 200.0 mg/kg/injection, schedule: Q04DX003 (ip), vehicle: water 96 % of control

CC1(C)NCC(=O)N1C(Cc1ccccc1)C(=O)O (stereo not given)
inactive: [22] 100 % of control | [23] 97 % of control | [24] 100 % of control

CN1CCCCC(c2ccccc2)(c2ccccc2)C1=N
inactive: dose: 37.5 mg/kg/injection, schedule: Q01DX001 (ip), vehicle: saline 100 % of control

O=S(=O)(O)C(O)c1ccc(C(O)S(=O)(=O)O)cc1 (stereo not given)
inactive: [22] 107 % of control | [11] 92 % of control | [23] 107 % of control | [12] 102 % of control | [24] 105 % of control | [13] 95 % of control

[Br][Sb]([Br])([c]1ccccc1)([c]1ccccc1)[c]1ccccc1
inactive: [1] 91 % of control | [2] 97 % of control | [16] 90 % of control | [17] 87 % of control

O=S1(=O)CC(c2ccccc2)(c2ccccc2)N1
inactive: [16] 108 % of control | [17] 112 % of control | [18] 96 % of control

COc1cc(NC(=O)Nc2cc(Cl)ccc2C)c(OC)cc1Cl
inactive: [19] 97 % of control | [2] 94 % of control and 88 % of control | [16] 104 % of control | [3] 103 % of control | [20] 103 % of control | [4] 87 % of control and 90 % of control | [17] 98 % of control | [5] 101 % of control | [21] 95 % of control | [6] 88 % of control | [18] 89 % of control | [7] 92 % of control

N#Cc1ccccc1C(Cl)(Cl)Cl
inactive: [16] 100 % of control | [17] 106 % of control | [18] 100 % of control

COC(=O)C(c1ccccc1)c1ccccc1
inactive: [19] 97 % of control | [20] 97 % of control | [21] 104 % of control

CC(=O)c1ccc(-c2ccc(C(C)=O)cc2)cc1
inactive: [16] 97 % of control | [17] 101 % of control | [18] 97 % of control

COc1cc(OC)c(NC(=O)c2ccc([N+](=O)[O-])s2)cc1Cl
inactive: dose: 50.0 mg/kg/injection, schedule: Q01DX005 (ip), vehicle: saline 94 % of control | dose: 100.0 mg/kg/injection, schedule: Q01DX005 (ip), vehicle: saline 94 % of control | dose: 200.0 mg/kg/injection, schedule: Q01DX005 (ip), vehicle: saline 94 % of control

O=C(O)c1cccc(OCCCOc2ccccc2)c1
inactive: [2] 92 % of control | [4] 90 % of control | [6] 95 % of control

O=c1[nH]cc(CCOCc2ccccc2)c(=O)[nH]1
inactive: [22] 103 % of control | [23] 94 % of control | [24] 103 % of control

O=C(/C=C/c1ccc([N+](=O)[O-])cc1)Nc1ccc(S(=O)(=O)F)cc1
inactive: [22] 96 % of control | [2] 94 % of control | [23] 101 % of control | [4] 89 % of control | [24] 100 % of control | [6] 88 % of control

NC(=O)NN=C1CCC(CC2CCCCC2)CC1 (stereo not given)
inactive: dose: 25.0 mg/kg/injection, schedule: Q04DX003 (ip), vehicle: saline with Tween-80 102 % of control | dose: 50.0 mg/kg/injection, schedule: Q04DX003 (ip), vehicle: saline with Tween-80 102 % of control

CCOC(=O)C(C)(C)O
inactive: [22] 91 % of control | [23] 100 % of control | [24] 102 % of control
